The source of these data is patent US20240246977A1, “DEGRADATION OF BRUTON'S TYROSINE KINASE (BTK) BY CONJUGATION OF BTK INHIBITORS WITH E3 LIGASE LIGAND AND METHOD OF USE” (BeiGene Switzerland GmbH, priority 2021, published 2024).

Read-outs that look alike come from different tables or passages of the source.

The subject of one test is HEK-293 cells. As to the kind of experiment: HEK-293 cytotoxicity detection (CellTiter-Glo). Format: cell-based. The settings on record: 72 h incubation, CellTiter-Glo luminescence, read-out: HEK293. Summed up:
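HEK-293 cells exposed 72 h to 8 compounds doses (4-fold dilutions, top stock 5 mM at 500×) in 0.2% DMSO. Viability by CellTiter-Glo luminescence; inhibition normalised to DMSO high control and low control, IC50 from four-parameter curve fit.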

The next test concerns the target BTK (Homo sapiens, UniProt Q06187). As to the kind of experiment: BTK cell degradation in TMD-8 cells, HTRF assay. Type of test: cell-based. Details: endogenous in cells; host or cells: TMD-8 cells. The following applies: 6 h treatment, IC50 (DC50) of BTK degradation. Summed up: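 TMD-8 cells treated 6 h with 8-dose series (6-fold dilutions, 0.2% DMSO final), then lysed and BTK quantified by HTRF (337/665/620 nm) after overnight antibody incubation at room temperature. Degradation normalized to DMSO high and low controls; DC50 and Dmax from four-parameter fit.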

BTK, sequence (Q06187 whole entry): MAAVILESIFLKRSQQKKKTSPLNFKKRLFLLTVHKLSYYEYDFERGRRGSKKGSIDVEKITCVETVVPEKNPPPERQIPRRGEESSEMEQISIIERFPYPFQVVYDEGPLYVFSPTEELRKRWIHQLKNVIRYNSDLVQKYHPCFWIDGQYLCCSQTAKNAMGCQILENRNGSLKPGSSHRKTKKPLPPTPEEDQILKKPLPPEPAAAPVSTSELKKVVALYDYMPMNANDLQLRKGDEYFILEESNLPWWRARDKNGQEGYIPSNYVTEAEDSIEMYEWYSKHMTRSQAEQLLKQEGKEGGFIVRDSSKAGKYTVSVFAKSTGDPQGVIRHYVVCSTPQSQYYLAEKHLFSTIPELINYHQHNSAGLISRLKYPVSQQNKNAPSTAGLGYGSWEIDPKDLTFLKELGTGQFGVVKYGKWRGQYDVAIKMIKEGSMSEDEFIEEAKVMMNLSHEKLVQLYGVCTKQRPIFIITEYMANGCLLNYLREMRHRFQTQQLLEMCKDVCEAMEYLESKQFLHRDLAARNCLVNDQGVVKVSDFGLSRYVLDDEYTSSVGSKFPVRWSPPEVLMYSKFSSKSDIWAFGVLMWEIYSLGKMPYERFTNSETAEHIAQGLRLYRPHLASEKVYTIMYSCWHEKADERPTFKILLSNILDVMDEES

As for `NC(=O)c1c(-c2ccc(Oc3ccccc3)cc2)nn2c1Nc1ccc(C3CCN(CC4CCN(c5ccc(N6CCC(=O)NC6=O)cc5)CC4)CC3)cc1CC2` [Example A30, 7-(1-((1-(4-(2,4-dioxotetrahydropyrimidin-1(2H)-yl)phenyl)piperidin-4-yl)methyl)piperidin-4-yl)-2-(4-phenoxyphenyl)-9,10-dihydro-4H-benzo[d]pyrazolo[1,5-a][1,3]diazepine-3-carboxamide], the IC50 with HEK-293 cells (Homo sapiens, 72 h) amounted to 28.7 nM. Also, half-maximal degradation at BTK (DC50) was put at 1.58 nM.
`CC(C)(C)c1ccc(Oc2ccc(-c3nn4c(c3C(N)=O)Nc3ccc(C5CCN(CC6CCN(c7ccc(N8CCC(=O)NC8=O)cc7)CC6)CC5)cc3CC4)cc2)cc1` [Example A31, 2-(4-(4-(tert-butyl)phenoxy)phenyl)-7-(1-((1-(4-(2,4-dioxotetrahydropyrimidin-1(2H)-yl)phenyl)piperidin-4-yl)methyl)piperidin-4-yl)-9,10-dihydro-4H-benzo[d]pyrazolo[1,5-a][1,3]diazepine-3-carboxamide]: the IC50 in the test on HEK-293 cells (Homo sapiens, 72 h) amounted to 556 nM. Further, the 50% degradation concentration (DC50) at BTK amounted to 11.9 nM.
For the molecule `NC(=O)c1c(-c2ccc(Oc3ccccc3)cc2)nn2c1Nc1cc(C3CCN(CCCOc4ccc(NC5CCC(=O)NC5=O)cc4)CC3)ccc1CC2` (stereo not shown) [Example A32, 6-(1-(3-(4-((2,6-dioxopiperidin-3-yl)amino)phenoxy)propyl)piperidin-4-yl)-2-(4-phenoxyphenyl)-9,10-dihydro-4H-benzo[d]pyrazolo[1,5-a] [1,3]diazepine-3-carboxamide], the IC50 in the test on HEK-293 cells (Homo sapiens, 72 h) stood at 417 nM. Moreover, the half-maximal degradation concentration (DC50) at BTK amounted to 6.03 nM.
Take `NC(=O)c1c(-c2ccc(Oc3ccccc3)cc2)nn2c1Nc1cc(C3CCN(CCc4ccc(N5CCC(=O)NC5=O)cc4)CC3)ccc1CC2` [Example A33, 6-(1-(4-(2,4-dioxotetrahydropyrimidin-1(2H)-yl)phenethyl)piperidin-4-yl)-2-(4-phenoxyphenyl)-9,10-dihydro-4H-benzo[d]pyrazolo[1,5-a][1,3]diazepine-3-carboxamide]: the IC50 with HEK-293 cells (Homo sapiens, 72 h) stood at 314 nM. The DC50 on BTK was > 2000 nM.
Turning to `NC(=O)c1c(-c2ccc(Oc3ccccc3)cc2)nn2c1Nc1cc(C3CCN(CCc4ccc(C5CCC(=O)NC5=O)cc4)CC3)ccc1CC2` (stereo not shown) [Example A34, 6-(1-(4-(2,6-dioxopiperidin-3-yl)phenethyl)piperidin-4-yl)-2-(4-phenoxyphenyl)-9,10-dihydro-4H-benzo[d]pyrazolo[1,5-a][1,3]diazepine-3-carboxamide], the IC50 with HEK-293 cells (Homo sapiens, 72 h) stood at 337 nM. In addition, half-maximal degradation at BTK (DC50) was put at 11.9 nM.
`NC(=O)c1c(-c2ccc(Oc3ccccc3)cc2)nn2c1Nc1cc(C3CCN(CC4CCN(c5ccc(NC6CCC(=O)NC6=O)cc5)CC4)CC3)ccc1CC2` (stereo not shown) [Example A35, 6-(1-((1-(4-((2,6-dioxopiperidin-3-yl)amino)phenyl)piperidin-4-yl)methyl)piperidin-4-yl)-2-(4-phenoxyphenyl)-9,10-dihydro-4H-benzo[d]pyrazolo[1,5-a][1,3]diazepine-3-carboxamide]: in the test with HEK-293 cells (Homo sapiens, 72 h), the IC50 came to 241 nM. In addition, on BTK, the 50% degradation concentration (DC50) came to 69.1 nM.
For `COc1cc(Oc2ccccc2)ccc1-c1nn2c(c1C(N)=O)Nc1ccc(N3CCN(CC4CCN(c5ccc(N6CCC(=O)NC6=O)cc5)CC4)CC3)cc1CC2` [Example A36, 7-(4-((1-(4-(2,4-dioxotetrahydropyrimidin-1(2H)-yl)phenyl)piperidin-4-yl)methyl)piperazin-1-yl)-2-(2-methoxy-4-phenoxyphenyl)-9,10-dihydro-4H-benzo[d]pyrazolo[1,5-a][1,3]diazepine-3-carboxamide], the IC50 in the test on HEK-293 cells (Homo sapiens, 72 h) came out at 148 nM. Also, at BTK, the half-maximal degradation concentration (DC50) worked out at 3.6 nM.
The corresponding values for `NC(=O)c1c(-c2ccc(Oc3ccccc3)cc2F)nn2c1Nc1ccc(N3CCN(CC4CCN(c5ccc(N6CCC(=O)NC6=O)cc5)CC4)CC3)cc1CC2` [Example A37, 7-(4-((1-(4-(2,4-dioxotetrahydropyrimidin-1(2H)-yl)phenyl)piperidin-4-yl)methyl)piperazin-1-yl)-2-(2-fluoro-4-phenoxyphenyl)-9,10-dihydro-4H-benzo[d]pyrazolo[1,5-a][1,3]diazepine-3-carboxamide] are 70 nM and 4.71 nM.
For the molecule `NC(=O)c1c(-c2ccc(OCc3ccccc3)cc2)nn2c1Nc1ccc(N3CCN(CC4CCN(c5ccc(N6CCC(=O)NC6=O)cc5)CC4)CC3)cc1CC2` [Example A38, 2-(4-(benzyloxy)phenyl)-7-(4-((1-(4-(2,4-dioxotetrahydropyrimidin-1(2H)-yl)phenyl)piperidin-4-yl)methyl)piperazin-1-yl)-9,10-dihydro-4H-benzo[d]pyrazolo[1,5-a][1,3]diazepine-3-carboxamide], the IC50 in the test with HEK-293 cells (Homo sapiens, 72 h) stood at 185 nM. The DC50 at BTK amounted to 1.12 nM.
`NC(=O)c1c(-c2ccc(C(=O)Nc3cc(C(F)(F)F)ccn3)cc2)nn2c1Nc1ccc(N3CCN(CC4CCN(c5ccc(N6CCC(=O)NC6=O)cc5)CC4)CC3)cc1CC2` [Example B1, 7-(4-((1-(4-(2,4-dioxotetrahydropyrimidin-1(2H)-yl)phenyl)piperidin-4-yl)methyl)piperazin-1-yl)-2-(4-((4-(trifluoromethyl)pyridin-2-yl)carbamoyl)phenyl)-9,10-dihydro-4H-benzo[d]pyrazolo[1,5-a][1,3]diazepine-3-carboxamide]: in the test on HEK-293 cells, the IC50 is > 10000 nM. For the same molecule, on BTK, it took 0.561 nM to reach half-maximal degradation (DC50).
Take `NC(=O)c1c(-c2ccc(C(=O)Nc3cc(C(F)(F)F)ccn3)cc2F)nn2c1Nc1ccc(N3CCN(CC4CCN(c5ccc(N6CCC(=O)NC6=O)cc5)CC4)CC3)cc1CC2` [Example B2, 7-(4-((1-(4-(2,4-dioxotetrahydropyrimidin-1(2H)-yl)phenyl)piperidin-4-yl)methyl)piperazin-1-yl)-2-(2-fluoro-4-((4-(trifluoromethyl)pyridin-2-yl)carbamoyl)phenyl)-9,10-dihydro-4H-benzo[d]pyrazolo[1,5-a][1,3]diazepine-3-carboxamide]: the IC50 in the test on HEK-293 cells (Homo sapiens, 72 h) is > 10000 nM. At BTK, this molecule showed a 50% degradation concentration (DC50) of 0.842 nM.
The corresponding values for `Cc1cc(N2CCC(CN3CCN(c4ccc5c(c4)CCn4nc(-c6ccc(C(=O)Nc7cc(C(F)(F)F)ccn7)cc6)c(C(N)=O)c4N5)CC3)CC2)ccc1N1CCC(=O)NC1=O` [Example B3, 7-(4-((1-(4-(2,4-dioxotetrahydropyrimidin-1(2H)-yl)-3-methylphenyl)piperidin-4-yl)methyl)piperazin-1-yl)-2-(4-((4-(trifluoromethyl)pyridin-2-yl)carbamoyl)phenyl)-9,10-dihydro-4H-benzo[d]pyrazolo[1,5-a][1,3]diazepine-3-carboxamide] are 88.8 nM and 0.534 nM.
Regarding `NC(=O)c1c(-c2ccc(C(=O)Nc3ccccn3)cc2)nn2c1Nc1ccc(N3CCN(CC4CCN(c5ccc(N6CCC(=O)NC6=O)cc5)CC4)CC3)cc1CC2` [Example B4, 7-(4-((1-(4-(2,4-dioxotetrahydropyrimidin-1(2H)-yl)phenyl)piperidin-4-yl)methyl)piperazin-1-yl)-2-(4-(pyridin-2-ylcarbamoyl)phenyl)-9,10-dihydro-4H-benzo[d]pyrazolo[1,5-a][1,3]diazepine-3-carboxamide], the IC50 with HEK-293 cells (Homo sapiens, 72 h) was > 10000 nM. The molecule also gave a 50% degradation concentration (DC50) at BTK of 0.704 nM.
For `Cc1cc(-c2nn3c(c2C(N)=O)Nc2ccc(N4CCN(CC5CCN(c6ccc(N7CCC(=O)NC7=O)cc6)CC5)CC4)cc2CC3)ccc1C(=O)Nc1cc(C(F)(F)F)ccn1` [Example B5, 7-(4-((1-(4-(2,4-dioxotetrahydropyrimidin-1(2H)-yl)phenyl)piperidin-4-yl)methyl)piperazin-1-yl)-2-(3-methyl-4-((4-(trifluoromethyl)pyridin-2-yl)carbamoyl)phenyl)-9,10-dihydro-4H-benzo[d]pyrazolo[1,5-a][1,3]diazepine-3-carboxamide], the IC50 with HEK-293 cells (Homo sapiens, 72 h) was > 10000 nM. This molecule also displayed a DC50 at BTK of 1.46 nM.
As to `Cc1cc(C(=O)Nc2cc(C(F)(F)F)ccn2)ccc1-c1nn2c(c1C(N)=O)Nc1ccc(N3CCN(CC4CCN(c5ccc(N6CCC(=O)NC6=O)cc5)CC4)CC3)cc1CC2` [Example B6, 7-(4-((1-(4-(2,4-dioxotetrahydropyrimidin-1(2H)-yl)phenyl)piperidin-4-yl)methyl)piperazin-1-yl)-2-(2-methyl-4-((4-(trifluoromethyl)pyridin-2-yl)carbamoyl)phenyl)-9,10-dihydro-4H-benzo[d]pyrazolo[1,5-a][1,3]diazepine-3-carboxamide], in the test with HEK-293 cells (Homo sapiens, 72 h), the IC50 was > 10000 nM. Further, at BTK, the DC50 is 2.22 nM.
Turning to `Cc1cc(-c2nn3c(c2C(N)=O)Nc2ccc(N4CCN(CC5CCN(c6ccc(N7CCC(=O)NC7=O)cc6)CC5)CC4)cc2CC3)cc(C)c1C(=O)Nc1cc(C(F)(F)F)ccn1` [Example B7, 2-(3,5-dimethyl-4-((4-(trifluoromethyl)pyridin-2-yl)carbamoyl)phenyl)-7-(4-((1-(4-(2,4-dioxotetrahydropyrimidin-1(2H)-yl)phenyl)piperidin-4-yl)methyl)piperazin-1-yl)-9,10-dihydro-4H-benzo[d]pyrazolo[1,5-a][1,3]diazepine-3-carboxamide], in the test on HEK-293 cells (Homo sapiens, 72 h), the IC50 was > 10000 nM. Also, on BTK, it took 5.37 nM to reach half-maximal degradation (DC50).
In the case of `NC(=O)c1c(-c2ccc(C(=O)Nc3cc(C(F)(F)F)ccn3)c(F)c2)nn2c1Nc1ccc(N3CCN(CC4CCN(c5ccc(N6CCC(=O)NC6=O)cc5)CC4)CC3)cc1CC2` [Example B8, 7-(4-((1-(4-(2,4-dioxotetrahydropyrimidin-1(2H)-yl)phenyl)piperidin-4-yl)methyl)piperazin-1-yl)-2-(3-fluoro-4-((4-(trifluoromethyl)pyridin-2-yl)carbamoyl)phenyl)-9,10-dihydro-4H-benzo[d]pyrazolo[1,5-a][1,3]diazepine-3-carboxamide], the IC50 with HEK-293 cells (Homo sapiens, 72 h) was 301 nM. On BTK, it took 1.82 nM to reach half-maximal degradation (DC50).
